In patent publication US20230000808A1, “COMPOSITIONS AND METHODS EXCLUDING OR WITH REDUCED GLUTAMINE FOR THE TREATMENT OF HEMOGLOBINOPATHIES AND THALASSEMIAS” (AXCELLA HEALTH INC., priority 2019, published 2023):

Experiments:
Format in all cases: cell-based, human
[1] = system: RBCs of healthy whole blood; assay: RBC deformability (Elongation Index, LORRCA ektacytometry), ex vivo TBHP oxidation of healthy whole blood; conditions: for EI over vehicle control, both ½ EImax and EImax: healthy donor 2, single amino acid treatments
Text: Whole blood from healthy African American and/or Hispanic donors was obtained from Research Blood Components, LLC based on the following donor selection criteria: Adult age (between 18 and 50 years), normal BMI (<30), and absence of other confounding clinical conditions. Whole blood from SCD donors were obtained from BioIVT based on the following donor selection criteria: Patients with genotypes HbSS, HbSC, HbS/β^0 and at least 1-2 months gap since last blood transfusion. Whole blood was shipped on ice on the same day as blood draw. Upon receipt, the blood sample was aliquoted and stored in the refrigerator until used for studies.
RBC deformability measurements were conducted with the Laser Optical Rotational Red Cell Analyzer (LORRCA) from RR Mechatronics in a temperature-controlled environment (37° C.). Briefly, an even layer of RBCs suspended in polyvinylpyrrolidone (PVP) is subjected to shear stress gradient (0.3 to 30 Pa) through two concentric cylinders and the resulting changes in RBC shape or deformability are measured by a laser beam diffraction pattern. The captured images of RBC shape in response to increasing shear stress are then analyzed by the LORRCA program to calculate Elongation Index (EI).
Healthy RBCs have higher deformability ≥0.5 EI and SCD RBCs have lower deformability or EI values as studied by LORRCA ektacytometry in the field. […] The induced hemolysis model in this disclosure involves use of tert-butyl hydroperoxide (TBHP) to lower EI of RBCs.
The ex vivo hemolysis study disclosed here involves overnight treatment of whole blood with vehicle as a control and specific amino acids followed by rapid oxidation (5 min) with TBHP. Method for oxidation of whole blood with tert-butyl hydroperoxide has been used in prior literature (Diederich L, et al, Front Physiol. 2018 May 11; 9:332). RBC deformability or shape changes are then measured with LORRCA ektacytometry.
Whole blood aliquots stored in the fridge were brought up to room temperature while gently shaking on a rocker at low speed for an hour to ensure gradual and uniform suspension of red blood cells prior to deformability measurements. Vehicle control used in the study was 1× Dulbecco's […]) and amino acids disclosed herein were added (at either final 10× or 2.5 mM concentration as indicated) to corresponding vehicle and amino acid treatment conditions. The samples were then incubated overnight at 37° C. The next day, 25 μl of whole blood was taken from each treatment condition and added to 5 mL Elon ISO viscous solution from RR Mechatronics. The sample was inverted 15-20 times to ensure proper mixing of the treated RBCs with the Elon ISO solution followed by loading the sample on LORRCA and capturing RBC deformability or shape measurements over the applied shear gradient. The remaining whole blood treatments were returned to incubator (37° C.) until deformability measurements were completed for all treatments. To the remaining whole blood treatment samples, TBHP solution (5.0-6.0 M in Decane, Sigma) was added at 2.5 mM final concentration from a 100 mM freshly prepared stock and incubated for further 5 min at 37° C. 25 μl of this TBHP-treated sample was immediately removed at the end of the 5 min incubation and added to the Elon ISO solution for RBC deformability measurement after oxidation. Included in the Tables 13-15 are EI measurements at ½ EImax shear stress 1.69 Pa and EImax shear stress 30 Pa from these studies and FIG. 1 captures EI measurements for all shear stress points for the indicated treatment conditions.

VCAM-1 = VCAM-1 cell integrated intensity in HLMVEC treated with TNF-α (immunofluorescence); conditions: for VCAM-1 expression in HLMVEC: 0.5 ng/mL TNF-α, amino acids at 20× HMDB, 24 hours
Outline: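 Primary human lung microvascular endothelial cells, 24 h in medium with SCD-like amino acid profile plus 0.5 ng/mL TNF-α, with or without amino acids at 20× mean plasma level. Fixed, immunostained for ICAM-1 and VCAM-1; integrated intensity per cell by high-content imaging.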

sVCAM-1 = assay: Soluble VCAM-1 in HLMVEC/TNF-α model (Luminex); conditions: for sVCAM-1 expression relative to TNF Control, Mean % Change: 20×HMDB amino acids, 24 h co-treatment
Experimental: Cells were incubated at 37° C., 5% CO2 in a humidified incubator. Cells were passaged at least 1-2 times in the complete growth medium every 2-3 days until ready to plate for cell culture studies. Once ready for experiment, HLMVECs were seeded at a density of 6K cells per well of the 96 well optical microplates (Thermofisher) in the complete growth medium described above and the plated cells were incubated for 24 hours at 37° C. in a humidified incubator with 5% CO2. […] The values are published in the Human Metabolome Database (Wishart D S, et al., Nucleic Acids Res. 2007 January; 35:D521-6) which is hereby incorporated by reference in its entirety. The medium was also supplemented with growth factors & antibiotics from EGM2-MV kit (Lonza) except the kit-provided FBS which was substituted with dialyzed FBS (Hyclone). […]). […] were run in duplicate and data was normalized to corresponding TNF-α control for respective treatments as specified in the tables. Mean percent change in level of adhesion markers are reported herein. Statistical analysis was done using two sample t-test.

| Compound | effectiveness among all treatment groups, EI and fold change relative to vehicle ([1]; healthy donor 2) | EI over vehicle control, both ½ EImax and EImax [1] | VCAM-1 expression in HLMVEC (VCAM-1) | sVCAM-1 expression relative to TNF Control, Mean % Change (sVCAM-1; TNF Conc 0.5 ng/mL) | sVCAM-1 expression relative to TNF Control, Mean % Change (sVCAM-1; TNF Conc 25 ng/mL) | increase in sVCAM-1 level relative to control (sVCAM-1; both TNF-α groups) | VCAM-1 Cell Integrated Intensity Median (VCAM-1; HLMVEC + 0.5 ng/mL TNF-α, 24 h, amino acids 20x HMDB, Nac/Cit/Car 5 mM as bracketed) |
| --- | --- | --- | --- | --- | --- | --- | --- |
| NC(=O)CC[C@H](N)C(=O)O [Glutamine, L-glutamine] | least effective | higher than the vehicle | increased | 566.0015% | 755.2941% | > 570% |  |
| CC(=O)N[C@@H](CS)C(=O)O [N-Acetyl Cysteine, N-acetylcysteine] |  | higher than the vehicle | greatly reduced |  |  |  | −0.315 |
